Consider 4 molecules from US8354372B2 (priority 2006, dated 2013).

The test system of series [1] is CCI-rats. The conditions noted are these: rat, in vivo, po.
Series [2] has as its system bovine adrenal chromaffin cells. Format: cell-based.
The target in series [3] is α3α5β4 nAChR (Homo sapiens, UniProt P30926+P32297). Format: cell-based.
The subject of series [4] is rat models of human neuropathic pain. The conditions noted are these: in vivo; cited from earlier work.
Series [5] has as its target α3α6β2 nAChR (Homo sapiens, UniProt P17787+P32297+Q15825). It is filed as cell-based. The conditions noted are these: 30 µM.
In series [6] the target is α4β2 nAChR (Homo sapiens, UniProt P17787+P43681). It is filed as cell-based.
α4β2 nAChR, sequence (P43681 29-627 limits assumed): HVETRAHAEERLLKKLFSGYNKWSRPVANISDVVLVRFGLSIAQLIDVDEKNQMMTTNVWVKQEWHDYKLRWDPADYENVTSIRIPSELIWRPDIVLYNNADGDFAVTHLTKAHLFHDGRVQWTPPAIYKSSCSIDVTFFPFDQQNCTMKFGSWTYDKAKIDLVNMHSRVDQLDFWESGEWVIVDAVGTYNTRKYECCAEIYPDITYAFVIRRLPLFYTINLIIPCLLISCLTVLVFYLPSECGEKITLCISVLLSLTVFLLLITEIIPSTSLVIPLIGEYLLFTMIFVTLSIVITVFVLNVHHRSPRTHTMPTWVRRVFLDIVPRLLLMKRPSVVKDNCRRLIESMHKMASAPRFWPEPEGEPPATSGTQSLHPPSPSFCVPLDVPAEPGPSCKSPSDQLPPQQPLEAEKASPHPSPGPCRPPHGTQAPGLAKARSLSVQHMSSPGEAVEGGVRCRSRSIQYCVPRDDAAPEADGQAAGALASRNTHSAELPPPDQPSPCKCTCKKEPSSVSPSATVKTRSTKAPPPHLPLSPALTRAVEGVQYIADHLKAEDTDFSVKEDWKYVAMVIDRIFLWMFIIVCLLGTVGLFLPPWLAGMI
α4β2 nAChR, sequence (P17787 26-502 limits assumed): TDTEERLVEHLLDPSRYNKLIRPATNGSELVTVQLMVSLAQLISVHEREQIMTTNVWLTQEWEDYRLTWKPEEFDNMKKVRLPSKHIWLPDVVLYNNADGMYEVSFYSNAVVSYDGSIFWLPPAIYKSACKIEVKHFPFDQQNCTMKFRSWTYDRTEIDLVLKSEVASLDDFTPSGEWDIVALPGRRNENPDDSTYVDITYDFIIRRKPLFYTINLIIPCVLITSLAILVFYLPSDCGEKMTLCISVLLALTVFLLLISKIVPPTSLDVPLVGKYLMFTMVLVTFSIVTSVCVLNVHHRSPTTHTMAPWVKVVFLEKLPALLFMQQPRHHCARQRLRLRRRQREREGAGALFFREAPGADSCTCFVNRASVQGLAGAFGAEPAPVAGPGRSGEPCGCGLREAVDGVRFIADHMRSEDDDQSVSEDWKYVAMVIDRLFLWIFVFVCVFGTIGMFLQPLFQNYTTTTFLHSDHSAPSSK
In series [7] the test system is animal model of inflammatory pain. The following applies: in vivo; cited from earlier work.
Series [8] concerns α3-containing nAChRs. Format: cell-based.
Series [9] deals with α4β4 nAChR (Homo sapiens, UniProt P30926+P43681). It is filed as cell-based.
α4β4 nAChR, sequence (P43681 29-627 limits assumed): as the sequence (P43681 29-627 limits assumed) above
α4β4 nAChR, sequence (P30926 22-498 limits assumed): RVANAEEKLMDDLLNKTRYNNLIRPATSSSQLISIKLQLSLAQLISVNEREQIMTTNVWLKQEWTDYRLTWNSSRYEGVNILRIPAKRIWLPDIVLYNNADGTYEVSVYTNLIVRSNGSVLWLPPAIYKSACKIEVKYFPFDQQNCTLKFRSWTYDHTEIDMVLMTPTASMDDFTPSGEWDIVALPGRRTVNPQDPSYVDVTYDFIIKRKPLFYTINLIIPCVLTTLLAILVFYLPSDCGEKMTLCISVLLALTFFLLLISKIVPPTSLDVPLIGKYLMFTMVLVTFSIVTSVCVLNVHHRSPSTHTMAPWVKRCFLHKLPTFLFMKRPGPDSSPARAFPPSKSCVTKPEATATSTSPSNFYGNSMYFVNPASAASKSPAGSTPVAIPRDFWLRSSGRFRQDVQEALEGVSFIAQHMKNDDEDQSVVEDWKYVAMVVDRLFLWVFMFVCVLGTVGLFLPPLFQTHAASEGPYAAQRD
Series [10] deals with α3, β4 subtype of the nAchR (Rattus norvegicus, UniProt P04757+P12392). The following applies: cited from earlier work.
α3, β4 subtype of the nAchR, sequence (P04757 26-499 limits assumed): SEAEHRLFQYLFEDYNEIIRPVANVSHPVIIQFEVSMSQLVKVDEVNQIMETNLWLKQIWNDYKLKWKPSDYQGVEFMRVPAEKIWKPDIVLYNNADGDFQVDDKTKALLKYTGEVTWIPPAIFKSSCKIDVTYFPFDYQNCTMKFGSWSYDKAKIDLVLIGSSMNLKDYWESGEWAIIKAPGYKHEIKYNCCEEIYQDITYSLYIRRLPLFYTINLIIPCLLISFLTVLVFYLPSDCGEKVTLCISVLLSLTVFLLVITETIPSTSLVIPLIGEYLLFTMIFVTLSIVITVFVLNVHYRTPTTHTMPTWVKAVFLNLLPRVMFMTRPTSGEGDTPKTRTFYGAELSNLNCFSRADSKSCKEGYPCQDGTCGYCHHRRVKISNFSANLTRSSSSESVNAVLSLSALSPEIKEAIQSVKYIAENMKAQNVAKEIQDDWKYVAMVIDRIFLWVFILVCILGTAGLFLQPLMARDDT
α3, β4 subtype of the nAchR, sequence (P12392 21-495 limits assumed): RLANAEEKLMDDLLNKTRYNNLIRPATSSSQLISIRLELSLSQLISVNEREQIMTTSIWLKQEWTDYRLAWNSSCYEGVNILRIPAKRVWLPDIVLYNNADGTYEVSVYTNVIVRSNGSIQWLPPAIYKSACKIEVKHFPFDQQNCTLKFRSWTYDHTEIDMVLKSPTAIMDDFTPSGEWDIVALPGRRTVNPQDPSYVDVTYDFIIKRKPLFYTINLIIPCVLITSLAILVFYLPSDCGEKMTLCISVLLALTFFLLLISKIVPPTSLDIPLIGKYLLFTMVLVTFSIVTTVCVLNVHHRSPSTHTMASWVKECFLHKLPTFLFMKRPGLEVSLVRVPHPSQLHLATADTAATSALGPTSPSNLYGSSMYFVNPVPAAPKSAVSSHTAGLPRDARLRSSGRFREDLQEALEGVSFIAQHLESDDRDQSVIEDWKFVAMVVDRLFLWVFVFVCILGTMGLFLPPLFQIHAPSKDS
For series [11] the following is noted: in vivo; cited from earlier work.
The subject of series [12] is α9, α10 nAchR. The following applies: cited from earlier work.
Series [13] relates to streptozotocin-induced diabetic rat. The conditions noted are these: in vivo; cited from earlier work.
Series [14] has as its system unmyelinated C-fiber axons in isolated segments of peripheral human nerves. The conditions noted are these: cited from earlier work.
The target of series [15] is homopentameric neuronal nAChR, α7 (Homo sapiens, UniProt P36544). It is filed as cell-based. The conditions noted are these: 10 µM.
homopentameric neuronal nAChR, α7, sequence (P36544 23-502 limits assumed): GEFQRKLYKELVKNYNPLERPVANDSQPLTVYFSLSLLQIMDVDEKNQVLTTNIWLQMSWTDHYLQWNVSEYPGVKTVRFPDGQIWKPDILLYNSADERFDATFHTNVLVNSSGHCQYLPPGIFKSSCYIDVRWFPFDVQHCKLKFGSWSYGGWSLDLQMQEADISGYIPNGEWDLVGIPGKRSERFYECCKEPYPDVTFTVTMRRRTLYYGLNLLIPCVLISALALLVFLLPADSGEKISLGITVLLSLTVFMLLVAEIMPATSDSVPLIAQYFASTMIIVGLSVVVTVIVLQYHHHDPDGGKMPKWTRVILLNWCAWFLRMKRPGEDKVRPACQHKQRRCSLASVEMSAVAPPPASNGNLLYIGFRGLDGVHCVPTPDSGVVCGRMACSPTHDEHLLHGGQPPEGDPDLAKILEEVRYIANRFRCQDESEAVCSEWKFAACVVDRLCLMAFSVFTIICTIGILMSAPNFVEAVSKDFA
For series [16] the following is noted: human, plasma.
The target in series [17] is endoproteinase Glu-C (Endo Glu-C) (Staphylococcus aureus, UniProt P0C1U8). The following applies: isolated enzyme glu c, pH 8.
endoproteinase Glu-C (Endo Glu-C), sequence (P0C1U8 69-336 limits assumed): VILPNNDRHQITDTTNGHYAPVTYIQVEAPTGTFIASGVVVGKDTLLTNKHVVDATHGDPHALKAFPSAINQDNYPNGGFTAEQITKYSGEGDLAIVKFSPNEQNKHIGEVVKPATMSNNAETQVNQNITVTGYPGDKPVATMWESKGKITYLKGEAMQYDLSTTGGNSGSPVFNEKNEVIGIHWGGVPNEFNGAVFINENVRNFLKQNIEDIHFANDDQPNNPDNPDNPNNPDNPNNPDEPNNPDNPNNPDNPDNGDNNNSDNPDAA
Series [18] deals with nAChR combination α3α5β4 expressed in Xenopus oocytes. Briefly: cell-based or functional assay.

α3α5β4 nAChR, sequence (P30926 whole entry, looked up): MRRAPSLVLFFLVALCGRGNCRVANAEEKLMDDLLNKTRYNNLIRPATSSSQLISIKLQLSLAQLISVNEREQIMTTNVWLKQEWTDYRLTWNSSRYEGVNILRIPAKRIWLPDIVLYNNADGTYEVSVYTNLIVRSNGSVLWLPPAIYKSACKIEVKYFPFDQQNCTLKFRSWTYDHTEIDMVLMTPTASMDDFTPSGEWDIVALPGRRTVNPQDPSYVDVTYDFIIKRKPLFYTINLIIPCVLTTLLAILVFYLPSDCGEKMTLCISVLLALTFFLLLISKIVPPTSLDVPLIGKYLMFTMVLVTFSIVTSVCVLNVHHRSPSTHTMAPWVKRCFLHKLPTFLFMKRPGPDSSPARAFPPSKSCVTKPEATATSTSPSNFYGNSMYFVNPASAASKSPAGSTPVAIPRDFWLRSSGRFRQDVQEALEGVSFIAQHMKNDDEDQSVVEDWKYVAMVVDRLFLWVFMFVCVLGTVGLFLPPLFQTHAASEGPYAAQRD
α3α5β4 nAChR, sequence (P32297 whole entry, looked up): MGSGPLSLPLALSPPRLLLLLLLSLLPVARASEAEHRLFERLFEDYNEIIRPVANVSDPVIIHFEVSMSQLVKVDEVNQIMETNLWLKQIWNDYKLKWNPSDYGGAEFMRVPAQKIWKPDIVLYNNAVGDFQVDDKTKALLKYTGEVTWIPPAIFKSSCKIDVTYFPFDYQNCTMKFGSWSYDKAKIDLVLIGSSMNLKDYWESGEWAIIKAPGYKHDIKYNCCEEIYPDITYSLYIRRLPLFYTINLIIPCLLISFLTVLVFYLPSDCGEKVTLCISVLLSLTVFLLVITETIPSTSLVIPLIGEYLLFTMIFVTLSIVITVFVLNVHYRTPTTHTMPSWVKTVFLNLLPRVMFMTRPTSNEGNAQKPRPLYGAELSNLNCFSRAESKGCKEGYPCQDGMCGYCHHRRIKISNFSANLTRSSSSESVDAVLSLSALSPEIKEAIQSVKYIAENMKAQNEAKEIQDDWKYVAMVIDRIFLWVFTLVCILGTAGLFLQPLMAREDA

What is called ED50 is the dose at which the effect has come halfway, by size or by number of responders. A high value points to weaker potency. Molecule `CC[C@H](C)[C@@H]1NC(=O)[C@H](CCC(=O)O)NC(=O)[C@@H]2CCCN2C(=O)[C@H](Cc2c[nH]cn2)NC(=O)[C@H](CC(=O)O)NC(=O)[C@H](Cc2ccc(O)cc2)NC(=O)[C@H](CC(N)=O)NC(=O)[C@@H]2CSSC[C@@H]3NC(=O)CNC(=O)CNC(=O)CNC(=O)[C@H](C)NC(=O)[C@H](C)NC(=O)CNC(=O)CNC(=O)[C@H](CSSC[C@H](NC3=O)C(=O)N[C@@H](CO)C(=O)N[C@@H](CC(=O)O)C(=O)N3CCC[C@H]3C(=O)N[C@@H](CCCNC(=N)N)C(=O)N2)NC1=O` [cVc1.1-6] displayed an ED50 in series [1] of roughly 1 mg/kg. For the same molecule, the “inhibition of catecholamine release, activity relative to linear Vc1.1” value in [2] is reported as “identical, within experimental error”.
Turning to Vc1.1, the “lower potency to inhibit α3α5β4” value in [3] is given as greater than 5 fold. For the same molecule, in [4], the “effect on neuropathic pain in three rat models” value is recorded as “alleviate neuropathic pain” and the “functional recovery of injured neurons” value is given as “accelerate the functional recovery of injured neurons”. Besides, the “inhibition of ACh-induced current amplitude” value in series [5] was roughly 50%. In addition, in [6], the “inhibition of ACh-evoked currents” value is reported as “failed to inhibit”. The “efficacy in an animal model of inflammatory pain” value in [7] is on record as “effective”. Also, in series [8], the “antagonism of ACh-evoked currents” value is “did not antagonise ACh-evoked currents” and the “detectable response alone (>50 nA)” value is recorded as “nor elicit a detectable response alone”. For the same molecule, in [9], the “inhibition of ACh-evoked currents” value is listed as “failed to inhibit”. Further, in [10], the IC50 is 4.2 µM. In series [11], the “analgesic activity relative to Ziconotide” value is on record as “more active than Ziconotide”. Further, the “affinity for α9, α10 nAchR relative to α3, β4 nAchR” value in [12] is given as “one hundred fold higher”. For the same molecule, the IC50 in series [12] (read-out: affinity for the α9, α10 nAchR) is 0.0229 µM. Further, the “time after dosing at which anti allodynic effect was observed” value in series [13] was no more than 1 h. The “effect on nicotine-induced increase in axonal excitability” value in [14] is reported as “antagonize”. In [15], the “inhibition of the ACh-evoked current” value is listed as 14±2%.
By half-life is commonly meant the time in which the quantity being followed falls by half. Low readings indicate rapid decline, high ones slow decline. As for `CC(C)C[C@@H]1NC(=O)[C@H](CC(N)=O)NC(=O)[C@H](CO)NC(=O)[C@H](Cc2cnc[nH]2)NC(=O)[C@H](CCC(=O)O)NC(=O)[C@H](CC(C)C)NC(=O)[C@H](Cc2cnc[nH]2)NC(=O)[C@@H]2CSSC[C@H](NC(=O)CN)C(=O)N[C@@H](CSSC[C@@H](C(N)=O)NC1=O)C(=O)N[C@@H](CO)C(=O)N[C@@H](CC(N)=O)C(=O)N1CCC[C@H]1C(=O)N[C@@H](C(C)C)C(=O)N2` [MII], the half-life in series [16] is roughly 16 h; in series [17], roughly 10 h.
For the molecule α-conotoxin Vc1.1 (peptide), in series [18], the potency to inhibit ACh-evoked current (fold lower potency) is greater than 5.
